Laboratory results reported in ChEMBL document CHEMBL5696442, “Discovery of type II inhibitors of TGFβ-activated kinase 1 (TAK1) and mitogen-activated protein kinase kinase kinase kinase 2 (MAP4K2)” (J Med Chem, 2015).
Activity calls are given as the source filed them. The calls are words filed in the database; no cut-off is given here.

Tests used:
[1] = target: Cyclin-dependent kinase 13 (Homo sapiens) (UniProt Q14004); assay: Inhibition of CDC2L5 (unknown origin) at 1 uM by Ambit Kinomescan binding assay relative to control
[2] = target: SRSF protein kinase 3 (Homo sapiens) (UniProt Q9UPE1); assay: Inhibition of SRPK3 (unknown origin) at 1 uM by Ambit Kinomescan binding assay relative to control
[3] = target: RAC-alpha serine/threonine-protein kinase (Homo sapiens) (UniProt P31749); assay: Inhibition of AKT1 ATP Loop labeling site in human A-375 cells at 5 uM by KiNativ Profiling analysis relative to control; assay type: cell-based
[4] = target: T1, Phosphatidylinositol 5-phosphate 4-kinase type-2 gamma (Homo sapiens) (UniProt Q8TBX8); assay: Inhibition of PIP4K2C ATP labeling site harbouring TLVIKEVSSEDIADMHSNLSNYHQYIVK in human A-375 cells at 0.5 uM by KiNativ Profiling analysis relative to control; assay type: cell-based
T1 sequence (whole entry): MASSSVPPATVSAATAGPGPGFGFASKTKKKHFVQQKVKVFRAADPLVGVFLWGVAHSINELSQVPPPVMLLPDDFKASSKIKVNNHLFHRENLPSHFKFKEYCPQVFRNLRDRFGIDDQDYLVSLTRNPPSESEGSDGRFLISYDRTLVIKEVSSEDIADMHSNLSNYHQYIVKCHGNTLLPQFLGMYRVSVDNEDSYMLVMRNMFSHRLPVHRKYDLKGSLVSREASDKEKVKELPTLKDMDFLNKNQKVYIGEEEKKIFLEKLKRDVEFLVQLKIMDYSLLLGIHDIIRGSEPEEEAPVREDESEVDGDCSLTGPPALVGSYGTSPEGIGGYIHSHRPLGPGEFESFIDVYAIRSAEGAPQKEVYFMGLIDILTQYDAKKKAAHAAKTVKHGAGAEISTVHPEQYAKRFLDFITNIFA

[5] = target: T2, Dual specificity mitogen-activated protein kinase kinase 3 (Homo sapiens) (UniProt P46734); assay: Inhibition of MEK3 (unknown origin) at 1 uM by Ambit Kinomescan binding assay relative to control; values are per cent of control
T2 sequence (whole entry): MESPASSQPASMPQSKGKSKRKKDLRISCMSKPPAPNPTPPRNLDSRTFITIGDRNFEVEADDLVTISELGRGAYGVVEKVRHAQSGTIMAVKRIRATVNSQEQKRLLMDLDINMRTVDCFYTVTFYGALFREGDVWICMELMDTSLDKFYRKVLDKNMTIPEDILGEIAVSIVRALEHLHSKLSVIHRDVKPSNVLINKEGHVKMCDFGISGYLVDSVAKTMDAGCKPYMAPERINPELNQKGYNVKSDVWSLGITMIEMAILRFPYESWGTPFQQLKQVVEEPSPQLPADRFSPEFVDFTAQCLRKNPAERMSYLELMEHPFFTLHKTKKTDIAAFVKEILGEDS

[6] = target: Myosin light chain kinase (Homo sapiens) (UniProt Q32MK0); assay: Inhibition of MLCK (unknown origin) at 1 uM by Ambit Kinomescan binding assay relative to control; values are per cent of control
[7] = target: Glycogen synthase kinase-3 beta (Homo sapiens) (UniProt P49841); assay: Inhibition of GSK3B (unknown origin) at 10 uM by Ambit Kinomescan binding assay
[8] = target: T3, Serine/threonine-protein kinase 3 (Homo sapiens) (UniProt Q13188); assay: Inhibition of MST2 (unknown origin) at 10 uM by Ambit Kinomescan binding assay
T3 sequence (whole entry): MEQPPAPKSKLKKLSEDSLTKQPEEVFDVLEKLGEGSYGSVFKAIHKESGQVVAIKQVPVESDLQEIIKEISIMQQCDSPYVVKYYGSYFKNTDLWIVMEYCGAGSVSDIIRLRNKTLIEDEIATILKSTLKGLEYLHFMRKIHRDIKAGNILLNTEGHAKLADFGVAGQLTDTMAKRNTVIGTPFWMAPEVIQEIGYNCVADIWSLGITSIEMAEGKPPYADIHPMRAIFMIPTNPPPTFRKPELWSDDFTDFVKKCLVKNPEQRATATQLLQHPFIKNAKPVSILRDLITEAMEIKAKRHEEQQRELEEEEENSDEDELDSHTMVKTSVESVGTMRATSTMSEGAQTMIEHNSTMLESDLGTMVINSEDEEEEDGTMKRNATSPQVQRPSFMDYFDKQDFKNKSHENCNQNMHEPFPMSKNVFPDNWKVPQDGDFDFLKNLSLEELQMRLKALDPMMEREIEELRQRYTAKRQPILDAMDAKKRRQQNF

[9] = target: Mitogen-activated protein kinase kinase kinase kinase 4 (Homo sapiens, UniProt O95819); assay: Inhibition of ZC1/HGK Lys2 labeling site in human A-375 cells at 5 uM by KiNativ Profiling analysis relative to control; assay type: cell-based
[10] = target: Serine/threonine-protein kinase 38-like (Homo sapiens) (UniProt Q9Y2H1); assay: Inhibition of NDR2 Lys1 labeling site harbouring KDTGHIYAMKILR in human A-375 cells at 0.5 uM by KiNativ Profiling analysis relative to control; assay type: cell-based
[11] = target: Serine/threonine-protein kinase mTOR (Homo sapiens) (UniProt P42345); assay: Inhibition of FRAP ATP labeling site in human Huh-7 cells at 10 uM by KiNativ Profiling analysis relative to control; assay type: cell-based
[12] = target: Serine/threonine-protein kinase/endoribonuclease IRE1 (Homo sapiens) (UniProt O75460); assay: Inhibition of IRE1 Lys2 labeling site in human Huh-7 cells at 1 uM by KiNativ Profiling analysis relative to control; assay type: cell-based

Sequence of RAC-alpha serine/threonine-protein kinase (Homo sapiens) (P31749 whole entry): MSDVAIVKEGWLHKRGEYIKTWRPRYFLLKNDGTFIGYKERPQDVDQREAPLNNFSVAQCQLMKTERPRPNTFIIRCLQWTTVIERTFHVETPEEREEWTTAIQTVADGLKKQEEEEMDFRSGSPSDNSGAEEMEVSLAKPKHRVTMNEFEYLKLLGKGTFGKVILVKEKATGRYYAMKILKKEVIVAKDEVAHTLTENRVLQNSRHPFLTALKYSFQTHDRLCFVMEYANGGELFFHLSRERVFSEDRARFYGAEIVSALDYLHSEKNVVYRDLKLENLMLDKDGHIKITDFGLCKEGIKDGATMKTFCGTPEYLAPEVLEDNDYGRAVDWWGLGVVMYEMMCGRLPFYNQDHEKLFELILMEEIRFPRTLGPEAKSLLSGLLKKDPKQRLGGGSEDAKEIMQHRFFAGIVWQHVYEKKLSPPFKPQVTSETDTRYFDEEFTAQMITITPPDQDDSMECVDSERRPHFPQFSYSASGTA
Sequence of Mitogen-activated protein kinase kinase kinase kinase 4 (O95819 2-1239 limits assumed): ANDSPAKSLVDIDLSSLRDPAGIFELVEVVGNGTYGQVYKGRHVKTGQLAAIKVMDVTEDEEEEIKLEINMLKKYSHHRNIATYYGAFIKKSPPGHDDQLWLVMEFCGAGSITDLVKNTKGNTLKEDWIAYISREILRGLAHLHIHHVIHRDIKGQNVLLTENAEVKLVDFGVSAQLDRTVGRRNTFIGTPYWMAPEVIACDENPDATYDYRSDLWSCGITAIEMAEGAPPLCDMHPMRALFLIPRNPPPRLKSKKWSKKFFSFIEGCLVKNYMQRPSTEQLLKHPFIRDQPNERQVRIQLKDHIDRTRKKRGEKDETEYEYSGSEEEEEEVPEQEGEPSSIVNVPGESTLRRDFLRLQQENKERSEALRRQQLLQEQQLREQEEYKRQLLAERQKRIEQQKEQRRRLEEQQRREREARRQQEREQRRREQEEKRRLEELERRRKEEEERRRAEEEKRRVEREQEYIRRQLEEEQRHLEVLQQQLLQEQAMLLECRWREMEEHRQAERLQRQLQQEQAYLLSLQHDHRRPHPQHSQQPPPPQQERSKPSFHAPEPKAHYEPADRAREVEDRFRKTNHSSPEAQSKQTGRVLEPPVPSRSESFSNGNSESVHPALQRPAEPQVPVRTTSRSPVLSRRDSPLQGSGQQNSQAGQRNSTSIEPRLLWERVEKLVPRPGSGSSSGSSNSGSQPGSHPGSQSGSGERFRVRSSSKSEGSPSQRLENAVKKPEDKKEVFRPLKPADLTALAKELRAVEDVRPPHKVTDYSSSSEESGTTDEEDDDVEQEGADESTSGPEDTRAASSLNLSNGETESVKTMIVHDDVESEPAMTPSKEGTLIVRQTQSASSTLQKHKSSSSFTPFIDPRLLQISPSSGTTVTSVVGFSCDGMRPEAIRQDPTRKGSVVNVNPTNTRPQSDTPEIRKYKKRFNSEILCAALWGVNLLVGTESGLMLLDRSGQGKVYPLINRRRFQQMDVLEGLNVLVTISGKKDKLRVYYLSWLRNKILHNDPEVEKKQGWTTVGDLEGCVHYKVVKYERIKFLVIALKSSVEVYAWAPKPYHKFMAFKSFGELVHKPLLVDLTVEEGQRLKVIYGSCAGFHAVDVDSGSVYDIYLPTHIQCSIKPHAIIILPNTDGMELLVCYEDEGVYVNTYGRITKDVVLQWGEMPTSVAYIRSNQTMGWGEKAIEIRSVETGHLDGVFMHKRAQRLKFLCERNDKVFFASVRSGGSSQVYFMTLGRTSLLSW
Sequence of Myosin light chain kinase (Homo sapiens) (Q32MK0 whole entry): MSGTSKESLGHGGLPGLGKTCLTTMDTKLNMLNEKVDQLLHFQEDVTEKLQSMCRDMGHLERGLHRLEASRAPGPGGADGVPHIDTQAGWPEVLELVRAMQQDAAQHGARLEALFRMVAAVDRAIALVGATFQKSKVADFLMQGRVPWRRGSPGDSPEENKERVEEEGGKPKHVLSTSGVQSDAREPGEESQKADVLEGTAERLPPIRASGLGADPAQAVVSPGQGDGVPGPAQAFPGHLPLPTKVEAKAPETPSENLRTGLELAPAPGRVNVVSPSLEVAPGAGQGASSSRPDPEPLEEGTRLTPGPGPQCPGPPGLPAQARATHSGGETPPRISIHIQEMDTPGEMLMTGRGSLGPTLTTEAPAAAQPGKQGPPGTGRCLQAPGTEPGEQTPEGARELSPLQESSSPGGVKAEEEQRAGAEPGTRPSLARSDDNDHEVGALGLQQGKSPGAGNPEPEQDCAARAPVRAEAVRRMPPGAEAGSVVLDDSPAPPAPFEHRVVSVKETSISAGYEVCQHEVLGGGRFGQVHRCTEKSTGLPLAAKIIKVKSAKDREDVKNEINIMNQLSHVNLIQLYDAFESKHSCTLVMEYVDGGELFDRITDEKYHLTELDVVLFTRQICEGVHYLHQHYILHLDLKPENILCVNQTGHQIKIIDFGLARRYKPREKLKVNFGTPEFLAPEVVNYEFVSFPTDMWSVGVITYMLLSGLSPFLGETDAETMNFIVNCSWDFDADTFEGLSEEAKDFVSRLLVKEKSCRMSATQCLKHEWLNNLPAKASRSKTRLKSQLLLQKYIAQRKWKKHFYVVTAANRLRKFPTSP
Sequence of Glycogen synthase kinase-3 beta (Homo sapiens) (P49841 whole entry, looked up): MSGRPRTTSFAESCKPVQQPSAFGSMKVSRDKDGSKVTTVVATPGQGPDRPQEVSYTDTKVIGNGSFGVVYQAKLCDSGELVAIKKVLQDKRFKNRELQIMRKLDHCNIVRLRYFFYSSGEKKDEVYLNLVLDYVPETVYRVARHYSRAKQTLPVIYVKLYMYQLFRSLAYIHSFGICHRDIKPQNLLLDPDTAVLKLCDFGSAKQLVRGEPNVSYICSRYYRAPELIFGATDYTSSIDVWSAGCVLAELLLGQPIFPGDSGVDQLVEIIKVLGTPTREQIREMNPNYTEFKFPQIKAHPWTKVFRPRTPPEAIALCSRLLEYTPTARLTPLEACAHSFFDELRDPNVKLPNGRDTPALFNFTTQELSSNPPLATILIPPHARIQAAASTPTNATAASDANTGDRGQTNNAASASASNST
Sequence of Cyclin-dependent kinase 13 (Homo sapiens) (Q14004 whole entry, looked up): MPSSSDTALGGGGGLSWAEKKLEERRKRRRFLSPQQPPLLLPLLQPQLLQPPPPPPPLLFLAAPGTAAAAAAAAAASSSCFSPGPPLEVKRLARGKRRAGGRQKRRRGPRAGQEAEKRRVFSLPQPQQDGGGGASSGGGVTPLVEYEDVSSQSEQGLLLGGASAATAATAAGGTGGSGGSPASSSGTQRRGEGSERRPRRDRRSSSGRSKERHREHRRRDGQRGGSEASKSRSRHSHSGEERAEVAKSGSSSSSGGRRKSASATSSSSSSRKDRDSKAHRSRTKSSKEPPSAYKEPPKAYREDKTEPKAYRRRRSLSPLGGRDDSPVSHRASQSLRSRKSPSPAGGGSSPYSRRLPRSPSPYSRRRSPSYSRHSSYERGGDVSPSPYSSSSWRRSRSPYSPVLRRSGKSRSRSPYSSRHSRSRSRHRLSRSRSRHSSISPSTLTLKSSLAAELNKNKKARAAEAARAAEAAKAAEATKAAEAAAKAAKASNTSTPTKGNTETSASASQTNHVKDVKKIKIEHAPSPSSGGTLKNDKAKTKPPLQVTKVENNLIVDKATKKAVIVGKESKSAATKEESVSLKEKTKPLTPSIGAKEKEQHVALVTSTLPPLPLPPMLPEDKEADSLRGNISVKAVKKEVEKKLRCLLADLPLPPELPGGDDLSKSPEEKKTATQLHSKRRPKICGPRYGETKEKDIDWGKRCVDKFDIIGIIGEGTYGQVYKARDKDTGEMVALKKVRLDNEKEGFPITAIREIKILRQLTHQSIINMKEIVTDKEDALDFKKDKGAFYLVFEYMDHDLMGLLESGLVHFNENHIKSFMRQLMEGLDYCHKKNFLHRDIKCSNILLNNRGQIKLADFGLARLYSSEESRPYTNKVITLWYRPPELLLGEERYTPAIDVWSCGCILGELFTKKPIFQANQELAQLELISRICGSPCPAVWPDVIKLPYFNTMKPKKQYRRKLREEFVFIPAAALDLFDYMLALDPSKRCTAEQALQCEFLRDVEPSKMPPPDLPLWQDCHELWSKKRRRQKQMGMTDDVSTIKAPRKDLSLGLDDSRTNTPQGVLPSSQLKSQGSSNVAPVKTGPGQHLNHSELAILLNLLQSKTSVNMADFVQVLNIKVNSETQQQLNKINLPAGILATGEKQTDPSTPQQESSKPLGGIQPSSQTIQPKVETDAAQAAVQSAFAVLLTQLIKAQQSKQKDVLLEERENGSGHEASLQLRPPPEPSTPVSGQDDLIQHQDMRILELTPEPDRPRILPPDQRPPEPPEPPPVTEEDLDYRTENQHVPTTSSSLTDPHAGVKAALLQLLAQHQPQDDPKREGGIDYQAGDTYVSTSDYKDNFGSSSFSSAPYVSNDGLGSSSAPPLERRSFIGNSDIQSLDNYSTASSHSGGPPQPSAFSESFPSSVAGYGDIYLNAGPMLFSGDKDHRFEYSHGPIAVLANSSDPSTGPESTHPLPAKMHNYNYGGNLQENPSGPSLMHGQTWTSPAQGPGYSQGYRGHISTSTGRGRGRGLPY
Sequence of SRSF protein kinase 3 (Homo sapiens) (Q9UPE1 whole entry): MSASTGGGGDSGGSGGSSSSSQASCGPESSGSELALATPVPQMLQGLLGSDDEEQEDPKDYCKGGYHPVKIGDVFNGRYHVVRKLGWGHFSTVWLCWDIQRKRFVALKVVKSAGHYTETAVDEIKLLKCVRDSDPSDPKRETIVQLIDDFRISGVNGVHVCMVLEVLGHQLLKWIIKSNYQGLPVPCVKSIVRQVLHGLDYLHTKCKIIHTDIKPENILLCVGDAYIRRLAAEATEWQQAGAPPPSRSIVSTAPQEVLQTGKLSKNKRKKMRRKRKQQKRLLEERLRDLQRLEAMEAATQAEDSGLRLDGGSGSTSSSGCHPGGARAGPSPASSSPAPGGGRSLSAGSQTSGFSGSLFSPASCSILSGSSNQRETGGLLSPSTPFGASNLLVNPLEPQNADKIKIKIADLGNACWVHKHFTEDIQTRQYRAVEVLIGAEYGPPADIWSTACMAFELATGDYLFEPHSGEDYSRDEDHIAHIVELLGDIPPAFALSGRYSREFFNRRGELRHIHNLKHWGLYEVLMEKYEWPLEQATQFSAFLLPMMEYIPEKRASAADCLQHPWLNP

Compound: CCN1CCN(Cc2ccc(NC(=O)c3ccc(C)c(/C=C/c4cnc5[nH]ccc5c4OC)c3)cc2C(F)(F)F)CC1
- inhibition [1]: 100%
- inhibition [2]: 37%
- inhibition [3]: 10.4%
- inhibition [4]: 5.9%
- residual activity [5]: 62%
- residual activity [6]: 100%

Compound: CCN1CCN(Cc2ccc(NC(=O)c3ccc(C)c(Oc4ccnc5[nH]ccc45)c3)cc2C(F)(F)F)CC1
- inhibition [7]: inactive
- inhibition [8]: inactive
- inhibition [9]: 92.7%
- inhibition [10]: 31.6%
- inhibition [11]: inactive

Compound: CNc1cc(Oc2cc(C(=O)Nc3cc(N4CCN(C)CC4)cc(C(F)(F)F)c3)ccc2C)ncn1
- inhibition [12]: -9.9%
